Reference: ChEMBL document CHEMBL4219207, “Reversible, orally available ADP receptor (P2Y12) antagonists Part I: Hit to lead process” (Bioorg Med Chem Lett, 2018)

How the values were obtained:
[1] = biological target: T1, P2Y purinoceptor 12 (Homo sapiens, UniProt Q9H244); assay: Displacement of [3H]2MeSADP from P2Y12 receptor in human platelets after 60 mins by TopCount scintillation counting method
[2] = Plasma concentration in Sprague-Dawley rat at 2 mg/kg, po via gavage after 3 hrs using sample obtained from jugular vein; assay type: ADME, organism-based
[3] = Plasma concentration in Sprague-Dawley rat at 2 mg/kg, po via gavage after 3 hrs using sample obtained from portal vein; assay type: ADME, organism-based
[4] = Plasma concentration in Sprague-Dawley rat at 2 mg/kg, po via gavage after 1 hr using sample obtained from jugular vein; assay type: ADME, organism-based
[5] = Plasma concentration in Sprague-Dawley rat at 2 mg/kg, po via gavage after 1 hr using sample obtained from portal vein; assay type: ADME, organism-based
[6] = Cmax in Sprague-Dawley rat at 2 mg/kg, po via gavage; assay type: ADME, organism-based; set-up: dose 2 mg/kg, route oral; details: in vivo
[7] = Oral bioavailability in Sprague-Dawley rat at 2 mg/kg via gavage; assay type: ADME, organism-based; details: in vivo
[8] = Permeability in human Caco2 cells; assay type: ADME, cell-based; details: Caco-2, read-out: permeability
[9] = Half life in Sprague-Dawley rat at 2 mg/kg, po via gavage; assay type: ADME, organism-based; details: in vivo
[10] = biological target: T1, P2Y purinoceptor 12; assay: Competitive/reversible antagonist activity at P2Y12 receptor in platelets (unknown origin) assessed as inhibition of ADP-induced platelet aggregation; assay type: functional
[11] = Metabolic stability in human liver microsomes assessed as parent compound remaining at 3000 nM; assay type: ADME, microsome; details: read-out: Stability
[12] = Metabolic stability in dog liver microsomes assessed as parent compound remaining at 3000 nM; assay type: ADME, Canis lupus familiaris, microsome; details: read-out: Stability
[13] = Metabolic stability in rat liver microsomes assessed as parent compound remaining at 3000 nM; assay type: ADME, microsome; details: read-out: Stability

T1 sequence (Q9H244 whole entry): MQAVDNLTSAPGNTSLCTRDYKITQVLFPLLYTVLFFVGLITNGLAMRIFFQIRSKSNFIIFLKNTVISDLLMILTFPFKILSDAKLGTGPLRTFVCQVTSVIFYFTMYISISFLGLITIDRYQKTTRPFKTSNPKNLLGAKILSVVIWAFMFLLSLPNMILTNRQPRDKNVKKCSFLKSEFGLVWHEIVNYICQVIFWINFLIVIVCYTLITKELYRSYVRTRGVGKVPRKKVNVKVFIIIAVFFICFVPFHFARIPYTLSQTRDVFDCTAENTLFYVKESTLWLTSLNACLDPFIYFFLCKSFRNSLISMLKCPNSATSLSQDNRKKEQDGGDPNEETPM

SMILES | IC50 [1] | other results
CCOC(=O)N1CCN(C(=O)[C@@H](CSCC(=O)O)NC(=O)c2cc(OC)c3ccccc3n2)CC1 | 0.19 µM | –
COc1cc(C(=O)NCC(=O)N2CCN(c3cccc(C)c3)CC2)nc2ccccc12 | 0.89 µM | –
CCOC(=O)N1CCN(C(=O)CNC(=O)c2cc(OC)c3ccccc3n2)[C@H](C)C1 | 4.5 µM | –
CCOC(=O)N1CCN(C(=O)[C@H](CC(N)=O)NC(=O)c2cc(OC)c3ccccc3n2)CC1 | 2.1 µM | –
CCOC(=O)N1CCN(C(=O)[C@@H](C)NC(=O)c2cc(OC)c3ccccc3n2)CC1 | 14 µM | –
CCOC(=O)N1CCN(C(=O)CN(C)C(=O)c2cc(OC)c3ccccc3n2)CC1 | 21 µM | –
CCCOc1cc(C(=O)NCC(=O)N2CCN(C(=O)OCC)CC2)nc2ccccc12 | 0.52 µM | –
CCOC(=O)N1CCN(C(=O)[C@@H](CCC(=O)O)NC(=O)c2cc(OC)c3ccccc3n2)CC1 | 22 µM | –
CCc1ccc(C(=O)N2CCN(C(=O)CNC(=O)c3cc(OC)c4ccccc4n3)CC2)cc1 | 1.8 µM | –
CCOC(=O)N1CCN(C(=O)[C@H](Cc2ccccc2)NC(=O)c2cc(OC)c3ccccc3n2)CC1 | 8.6 µM | –
CCOC(=O)N1CCN(C(=O)[C@H](C)NC(=O)c2cc(OC)c3ccccc3n2)CC1 | 1.9 µM | –
CCOC(=O)N1CCN(C(=O)[C@H](COCC(=O)O)NC(=O)c2cc(OC)c3ccccc3n2)CC1 | 0.2 µM | –
CCOC(=O)N1CCN(C(=O)[C@H](Cc2c[nH]c3ccccc23)NC(=O)c2cc(OC)c3ccccc3n2)CC1 | 7.9 µM | –
CCOC(=O)N1CCN(C(=O)CNC(=O)c2cc(O)c3ccccc3n2)CC1 | > 2 µM | –
COc1cc(C(=O)NCC(=O)N2CCN(C(=O)NC(C)(C)C)CC2)nc2ccccc12 | 0.91 µM | –
CCOC(=O)N1CCN(C(=O)CNC(=O)c2cc(OC)c3ccccc3n2)[C@@H](C)C1 | 1.1 µM | –
CCOC(=O)N1CCN(C(=O)CNC(=O)c2cc(OC)c3ccccc3n2)C[C@@H]1C | 1.7 µM | –
CCOC(=O)N1CCN(C(=O)[C@H](Cc2cnc[nH]2)NC(=O)c2cc(OC)c3ccccc3n2)CC1 | 1.5 µM | –

Now from value to compound, other results behind:

IC50 [1] | SMILES | other results
4.3 µM | CCOC(=O)N1CCN(C(=O)CNC(=O)c2cc(OC)c3ccccc3n2)C[C@H]1C | –
> 3 µM | COC(=O)N1CCN(C(=O)CNC(=O)c2cc(OC)c3ccccc3n2)CC1 | –
0.84 µM | CCOC(=O)N1CCN(C(=O)CNC(=O)c2cc(OCC)c3ccccc3n2)CC1 | –
26 µM | CCOC(=O)N1CCN(C(=O)[C@H](CCCCN)NC(=O)c2cc(OC)c3ccccc3n2)CC1 | –
18 µM | CCOC(=O)N1CCN(C(=O)[C@@H](CC(=O)O)NC(=O)c2cc(OC)c3ccccc3n2)CC1 | –
0.15 µM | CCOC(=O)N1CCN(C(=O)[C@H](CC(=O)O)NC(=O)c2cc(OC)c3ccccc3n2)CC1 | concentration at 3 h [2]: 0.2 µM; concentration at 3 h [3]: 0.38 µM; concentration at 1 h [4]: 0.27 µM; concentration at 1 h [5]: 0.41 µM
> 3 µM | CCOC(=O)N1CCN(C(=O)CNC(=O)c2cc(OCc3ccccc3)c3ccccc3n2)CC1 | –
0.86 µM | CCOC(=O)N1CCN(C(=O)CNC(=O)C=C2c3ccccc3-c3ccccc32)CC1 | Cmax [6]: 2.7 µM
0.69 µM | CCOC(=O)N1CCN(C(=O)CNC(=O)c2cc(OC)c3ccccc3n2)CC1 | Cmax [6]: 1.2 µM; bioavailability [7]: 42%
1.1 µM | CCOC(=O)N1CCN(C(=O)[C@H](CO)NC(=O)c2cc(OC)c3ccccc3n2)CC1 | –
1.5 µM | CCOC(=O)N1CCN(C(=O)[C@@H](NC(=O)c2cc(OC)c3ccccc3n2)C(C)C)CC1 | –
0.27 µM | CCOC(=O)N1CCN(C(=O)[C@H](CCCC(=O)O)NC(=O)c2cc(OC)c3ccccc3n2)CC1 | –
1.8 µM | CCOC(=O)N1CCN(C(=O)CNC(=O)c2ccc3ccccc3c2)CC1 | Cmax [6]: 1.5 µM
1.1 µM | CCOC(=O)N1CCN(C(=O)[C@H](CC(=O)NCC(=O)O)NC(=O)c2cc(OC)c3ccccc3n2)CC1 | –
0.086 µM | CCOC(=O)N1CCN(C(=O)[C@H](CCC(=O)O)NC(=O)c2cc(OC)c3ccccc3n2)CC1 | concentration at 3 h [2]: 0.1 µM; Cmax [6]: 0.12 µM; concentration at 3 h [3]: 0.34 µM; Papp [8]: 1.66 nm/s; concentration at 1 h [4]: 0.12 µM; concentration at 1 h [5]: 0.34 µM; half-life [9]: 1.2 h; Kb [10]: 0.094 µM; remaining at 3 µM [11]: > 90%; remaining at 3 µM [12]: > 90%; remaining at 3 µM [13]: > 90%
2.5 µM | CCOC(=O)N1CCN(C(=O)[C@H](CCC(N)=O)NC(=O)c2cc(OC)c3ccccc3n2)CC1 | –
1.2 µM | CCCCCC(=O)N1CCN(C(=O)CNC(=O)c2cc(OC)c3ccccc3n2)CC1 | –
